In ChEMBL document CHEMBL5523741, “Development of an Orally Bioavailable LCK PROTAC Degrader as a Potential Therapeutic Approach to T-Cell Acute Lymphoblastic Leukemia” (J Med Chem, 2024):
In brackets after ≈: the same amount, converted by molar mass. Values belong to the compound of their own block, whether it stands above or below them. Activity calls are given as the source filed them. The calls are words filed in the database; no cut-off is given here.

Legend:
[1] = Apparent permeability of compound across apical to basolateral side in human Caco-2 cells; format: ADME, cell-based
[2] = Stability in CD-1 mouse plasma assessed as half life; format: ADME, cell-free
[3] = Drug concentration in CD-1 mouse plasma at 30 mg/kg, po measured after 4 hrs by UPLC-MS/MS analysis; format: ADME, organism-based
[4] = Apparent permeability of compound across basolateral to apical side in human Caco-2 cells; format: ADME, cell-based
[5] = Aqueous solubility of the compound incubated for 18 hrs by UPLC-SQDMS; format: physicochemical; conditions: buffer
[6] = Metabolic stability in mouse liver microsomes assessed as half life in presence of NADPH by UPLC-MS/MS analysis; format: ADME, Microsome
[7] = target: T1, Protein cereblon/Tyrosine-protein kinase Lck (Homo sapiens, UniProt P06239+Q96SW2); experiment: PROTAC activity at HiBit-tagged LCK/CRBN in human KOPT-K1 cells assessed as induction of LCK degradation incubated for 6 hrs by Nano-Glo HiBiT assay relative to control; format: cell-based
Target sequence in this assay (P06239 2-509 limits assumed): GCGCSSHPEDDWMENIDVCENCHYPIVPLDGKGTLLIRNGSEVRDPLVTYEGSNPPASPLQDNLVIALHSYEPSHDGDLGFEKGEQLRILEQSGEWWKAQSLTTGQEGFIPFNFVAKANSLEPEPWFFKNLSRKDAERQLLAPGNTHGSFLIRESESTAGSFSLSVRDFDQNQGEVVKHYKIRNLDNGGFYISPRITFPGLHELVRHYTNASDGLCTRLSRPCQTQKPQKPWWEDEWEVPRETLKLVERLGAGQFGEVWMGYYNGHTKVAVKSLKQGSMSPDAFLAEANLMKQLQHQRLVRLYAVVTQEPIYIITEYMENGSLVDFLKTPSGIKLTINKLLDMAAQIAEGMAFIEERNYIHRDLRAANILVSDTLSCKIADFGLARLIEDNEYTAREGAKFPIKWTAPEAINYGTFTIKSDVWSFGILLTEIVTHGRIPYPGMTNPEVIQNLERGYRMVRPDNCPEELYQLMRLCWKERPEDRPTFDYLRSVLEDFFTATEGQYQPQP
Target sequence in this assay (Q96SW2 whole entry partner): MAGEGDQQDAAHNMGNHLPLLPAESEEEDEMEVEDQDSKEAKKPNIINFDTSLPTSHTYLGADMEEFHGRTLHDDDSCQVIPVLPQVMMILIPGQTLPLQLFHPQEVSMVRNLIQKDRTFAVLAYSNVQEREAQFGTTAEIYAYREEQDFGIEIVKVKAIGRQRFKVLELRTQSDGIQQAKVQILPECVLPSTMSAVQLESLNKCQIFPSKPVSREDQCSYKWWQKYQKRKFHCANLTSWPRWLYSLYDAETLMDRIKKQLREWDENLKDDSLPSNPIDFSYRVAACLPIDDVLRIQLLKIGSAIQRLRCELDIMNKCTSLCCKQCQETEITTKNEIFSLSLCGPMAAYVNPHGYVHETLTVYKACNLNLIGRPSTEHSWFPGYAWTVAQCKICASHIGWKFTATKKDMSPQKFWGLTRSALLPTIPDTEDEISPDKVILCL

KOPTK1 [8] = experiment: Antiproliferative activity against human KOPT-K1 cells assessed as effect on cell viability measured for 72 hrs by celltiter glo assay; format: functional; conditions: read-out: LC50 (the source's name)
[9] = target: T1, Protein cereblon/Tyrosine-protein kinase Lck; experiment: PROTAC activity at HiBit-tagged LCK/CRBN in human KOPT-K1 cells assessed as induction of LCK degradation incubated for 6 hrs by Nano-Glo HiBiT assay; format: cell-based
KOPTK1 [10] = experiment: Downregulation of GAK in human KOPT-K1 cells measured for 6 hrs by tandem mass tag proteomic assay; format: functional, cell-based
KOPTK1 [11] = experiment: Downregulation of SIK2 in human KOPT-K1 cells measured for 6 hrs by tandem mass tag proteomic assay; format: functional, cell-based
[12] = Cmax in CD-1 mouse at 3 mg/kg, iv measured up to 24 hrs; format: ADME, organism-based; conditions: in vivo
[13] = Half life in CD-1 mouse at 3 mg/kg, iv measured up to 24 hrs; format: ADME, organism-based; conditions: in vivo
[14] = AUClast in CD-1 mouse at 3 mg/kg, iv measured up to 24 hrs; format: ADME, organism-based; conditions: in vivo
KOPTK1 [15] = experiment: Downregulation of EPHB1 in human KOPT-K1 cells measured for 6 hrs by tandem mass tag proteomic assay; format: functional, cell-based
[16] = target: T1, Protein cereblon/Tyrosine-protein kinase Lck; experiment: PROTAC activity at HiBit-tagged LCK/CRBN in human KOPT-K1 cells assessed as induction of LCK degradation at 0.1 to 1000 nM incubated for 6 hrs by Western blot analysis relative to control; format: cell-based; conditions: dose 0.1-1000 nM
Target sequence in this assay (P06239 2-509 limits assumed): as the sequence (P06239 2-509 limits assumed) above
Target sequence in this assay (Q96SW2 whole entry partner): as the sequence (Q96SW2 whole entry partner) above

[17] = target: T1, Protein cereblon/Tyrosine-protein kinase Lck; experiment: PROTAC activity at HiBit-tagged LCK/CRBN in human KOPT-K1 cells assessed as induction of LCK degradation incubated for 6 hrs by Western blot analysis; format: cell-based
Target sequence in this assay (P06239 whole entry): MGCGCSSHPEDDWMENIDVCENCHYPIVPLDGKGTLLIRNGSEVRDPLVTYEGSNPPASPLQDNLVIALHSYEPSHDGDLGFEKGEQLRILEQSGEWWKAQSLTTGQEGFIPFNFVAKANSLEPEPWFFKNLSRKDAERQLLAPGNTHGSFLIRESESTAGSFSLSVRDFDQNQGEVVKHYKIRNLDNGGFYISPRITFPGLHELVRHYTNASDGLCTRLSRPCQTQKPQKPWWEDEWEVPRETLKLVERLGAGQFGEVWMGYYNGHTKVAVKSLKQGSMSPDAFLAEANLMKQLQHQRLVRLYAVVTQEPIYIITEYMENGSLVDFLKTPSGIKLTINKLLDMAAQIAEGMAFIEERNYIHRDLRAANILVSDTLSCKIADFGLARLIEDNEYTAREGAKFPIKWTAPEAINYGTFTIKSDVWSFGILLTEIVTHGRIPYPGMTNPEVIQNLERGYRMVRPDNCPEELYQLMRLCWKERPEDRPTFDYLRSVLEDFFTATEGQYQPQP
Target sequence in this assay (Q96SW2 whole entry): as the sequence (Q96SW2 whole entry partner) above

[18] = Half life in CD-1 mouse at 30 mg/kg, po measured up to 24 hrs; format: ADME, organism-based; conditions: in vivo
[19] = Oral bioavailability in CD-1 mouse at 30 mg/kg measured up to 24 hrs; format: ADME, organism-based; conditions: in vivo
Mus musculus [20] = experiment: In-vivo PROTAC activity at LCK/CRBN in NOD Cg-Prkdc scid Il2rg tmIWjl (NSG) mouse model assessed as reduction in LCK level in Bone marrow at 30 mg/kg, po measured for 24 hrs by Western blot analysis; format: functional; set-up: scale not given: the % may be the effect or the level left
KOPTK1 [21] = experiment: Downregulation of CISH in human KOPT-K1 cells measured for 6 hrs by tandem mass tag proteomic assay; format: functional, cell-based
[22] = Efflux ratio of apparent permeability across basolateral to apical over apical to basolateral in human Caco-2 cells; format: ADME, cell-based
Mus musculus [23] = experiment: In-vivo PROTAC activity at LCK/CRBN in NOD Cg-Prkdc scid Il2rg tmIWjl (NSG) mouse model assessed as reduction in LCK level in Bone marrow at 30 mg/kg, po measured for 6 hrs by Western blot analysis; format: functional; set-up: scale not given: the % may be the effect or the level left
KOPTK1 [24] = experiment: Downregulation of YES1 in human KOPT-K1 cells measured for 6 hrs by tandem mass tag proteomic assay; format: functional, cell-based
[25] = Clearance in CD-1 mouse at 3 mg/kg, iv measured up to 24 hrs; format: ADME, organism-based; conditions: in vivo
KOPTK1 [26] = experiment: Downregulation of GSPT1 in human KOPT-K1 cells measured for 6 hrs by tandem mass tag proteomic assay; format: functional, cell-based
KOPTK1 [27] = experiment: Antiproliferative activity against human KOPT-K1 cells assessed as inhibition of cell growth at 100 nM measured for 18 hrs by celltiter glo assay; format: functional, cell-based
[28] = Volume of distribution at steady state in CD-1 mouse at 3 mg/kg, iv measured up to 24 hrs; format: ADME, organism-based; conditions: in vivo, read-out: Vdss
[29] = Volume of distribution at steady state in CD-1 mouse at 30 mg/kg, po measured up to 24 hrs; format: ADME, organism-based; conditions: in vivo
[30] = Clearance in CD-1 mouse at 30 mg/kg, po measured up to 24 hrs; format: ADME, organism-based; conditions: in vivo
KOPTK1 [31] = experiment: Downregulation of IKZF1 in human KOPT-K1 cells measured for 6 hrs by tandem mass tag proteomic assay; format: functional, cell-based
[32] = AUClast in CD-1 mouse at 30 mg/kg, po measured up to 24 hrs; format: ADME, organism-based; conditions: in vivo
[33] = Tmax in CD-1 mouse at 30 mg/kg, po measured up to 24 hrs; format: ADME, organism-based; conditions: in vivo
KOPTK1 [34] = experiment: Antiproliferative activity against human KOPT-K1 cells assessed as inhibition of cell growth at 100 nM measured for 280 hrs by celltiter glo assay; format: functional, cell-based
[35] = Cmax in CD-1 mouse at 30 mg/kg, po measured up to 24 hrs; format: ADME, organism-based; conditions: in vivo
[36] = target: T1, Protein cereblon/Tyrosine-protein kinase Lck; experiment: PROTAC activity at HiBit-tagged LCK/CRBN in human KOPT-K1 cells assessed as reduction in LCK level at 0.1 to 1000 nM incubated for 6 hrs immunoblotting analysis; format: cell-based; conditions: dose 0.1-1000 nM
Target sequence in this assay (P06239 2-509 limits assumed): as the sequence (P06239 2-509 limits assumed) above
Target sequence in this assay (Q96SW2 whole entry partner): as the sequence (Q96SW2 whole entry partner) above

KOPTK1 [37] = experiment: Downregulation of CSK in human KOPT-K1 cells measured for 6 hrs by tandem mass tag proteomic assay; format: functional, cell-based
KOPTK1 [38] = experiment: Downregulation of CK1alpha in human KOPT-K1 cells measured for 6 hrs by tandem mass tag proteomic assay; format: functional, cell-based
KOPTK1 [39] = experiment: Downregulation of IKZF3 in human KOPT-K1 cells measured for 6 hrs by tandem mass tag proteomic assay; format: functional, cell-based
KOPTK1 [40] = experiment: Antiproliferative activity against human KOPT-K1 cells assessed as inhibition of cell growth at 100 nM measured for 160 hrs by celltiter glo assay; format: functional, cell-based

Papp A→B [1]: 0.231 ×10⁻⁶ cm/s
half-life [2]: 47.4 h
concentration at 4 h [3]: 18 ng/mL
Papp B→A [4]: 5.3 ×10⁻⁶ cm/s
solubility at 18 h [5]: 1.4 µM (≈ 1.16 µg/mL)
half-life [6]: 10 h
Emax [7]: 93%
SMILES: Cc1nc(Nc2ncc(C(=O)Nc3c(C)cccc3Cl)s2)cc(N2CCN(CCCN3CCC4(CC3)CCN(c3ccc(C5CCC(=O)NC5=O)cc3)CC4)CC2)n1 (configuration not stated)

SMILES: Cc1nc(Nc2ncc(C(=O)Nc3c(C)cccc3Cl)s2)cc(N2CCC(CN3CCN(c4ccc(C5CCC(=O)N(C)C5=O)cc4)CC3)CC2)n1 (configuration not stated)
CC50 (KOPTK1 [8]): 1.98 nM
Activity [9]: inactive

SMILES: Cc1nc(Nc2ncc(C(=O)Nc3c(C)cccc3Cl)s2)cc(N2CCC(CN3CCN(c4ccc(C5CCC(=O)NC5=O)cc4)CC3)CC2)n1 (configuration not stated)
Activity (KOPTK1 [10]): inactive
Activity (KOPTK1 [11]): inactive
Cmax [12]: 1450 ng/mL
Papp A→B [1]: 0.302 ×10⁻⁶ cm/s
half-life [13]: 3.51 h
AUC(0-t) at 24 h [14]: 3560 ng·h/mL
Activity (KOPTK1 [15]): Active
Emax [16]: 98%
DC50 [17]: 1.21 nM
half-life [18]: 3.05 h
half-life [2]: 45.2 h
bioavailability [19]: 58%
Activity (Mus musculus [20]): 5%
Activity (KOPTK1 [21]): Active
concentration at 4 h [3]: 3290 ng/mL
Papp B→A [4]: 1.13 ×10⁻⁶ cm/s
efflux ratio [22]: 3.75
Activity (Mus musculus [23]): 10%
Activity (KOPTK1 [24]): inactive
CC50 (KOPTK1 [8]): 20.1 nM
clearance [25]: 14 mL/min/kg
Activity (KOPTK1 [26]): inactive
Activity (KOPTK1 [27]): Active
DC50 [9]: 17.5 nM
Vd [28]: 3.51 L/kg
Vdss [29]: 6.34 L/kg
CL/F [30]: 24 mL/min/kg
Activity (KOPTK1 [31]): inactive
AUC(0-t) at 24 h [32]: 20700 ng·h/mL
Tmax [33]: 1 h
Activity (KOPTK1 [34]): Active
half-life [6]: 2 h
Cmax [35]: 2240 ng/mL
Activity [36]: Active
Activity (KOPTK1 [37]): Active
Activity (KOPTK1 [38]): inactive
Activity (KOPTK1 [39]): inactive
Emax [7]: 77%

solubility at 18 h [5]: 1.87 µM (≈ 1.39 µg/mL)
DC50 [9]: 53 nM
half-life [6]: 4 h
Emax [7]: 62%
SMILES: Cc1nc(Nc2ncc(C(=O)Nc3c(C)cccc3Cl)s2)cc(N2CCN(CCN3CCN(c4ccc(C5CCC(=O)NC5=O)cc4)CC3)CC2)n1 (configuration not stated)

SMILES: Cc1nc(Nc2ncc(C(=O)Nc3c(C)cccc3Cl)s2)cc(N2CCN(CCO)CC2)n1
Activity (KOPTK1 [15]): Active
Activity (KOPTK1 [21]): Active
Activity (KOPTK1 [27]): Active
Activity (KOPTK1 [40]): inactive
Activity (KOPTK1 [37]): Active

solubility at 18 h [5]: 1.5 µM (≈ 1.28 µg/mL)
half-life [6]: 1.2 h
Emax [7]: 86%
SMILES: Cc1nc(Nc2ncc(C(=O)Nc3c(C)cccc3Cl)s2)cc(N2CCN(CCCC(=O)N3CCC4(CC3)CCN(c3ccc(C5CCC(=O)NC5=O)cc3)CC4)CC2)n1 (configuration not stated)

half-life [6]: 3.5 h
Emax [7]: < 60%
SMILES: Cc1nc(Nc2ncc(C(=O)Nc3c(C)cccc3Cl)s2)cc(N2CCN(CC3CCN(c4ccc(C5CCC(=O)NC5=O)cc4)CC3)CC2)n1 (configuration not stated)

solubility at 18 h [5]: 2.08 µM (≈ 1.58 µg/mL)
half-life [6]: 6.9 h
Emax [7]: 90%
SMILES: Cc1nc(Nc2ncc(C(=O)Nc3c(C)cccc3Cl)s2)cc(N2CCN(CCCN3CCN(c4ccc(C5CCC(=O)NC5=O)cc4)CC3)CC2)n1 (configuration not stated)

solubility at 18 h [5]: 0.15 µM (≈ 0.118 µg/mL)
half-life [6]: 1.06 h
Emax [7]: 93%
SMILES: Cc1nc(Nc2ncc(C(=O)Nc3c(C)cccc3Cl)s2)cc(N2CCN(CCCC(=O)N3CCN(c4ccc(C5CCC(=O)NC5=O)cc4)CC3)CC2)n1 (configuration not stated)
